Experimental data from patent US20210299079A1, “MONOMETHYL FUMARATE-CARRIER CONJUGATES AND METHODS OF THEIR USE” (Flagship Pioneering Innovations V, Inc., priority 2018, published 2021).
Structures can show the parent of a compound that is named as a salt.

How the values were obtained:
naïve CD4+ T cells = assay: Human Regulatory T Cell Differentiation Assay; type: cell-based; conditions: 6 days; for Cell viability % DMSO: viability dye; for activity at 100 µM: IL-2, 100 μM; for activity at 3000 µM: IL-2, 3 mM
Experimental: Peripheral blood mononuclear cells (PBMCs) from whole blood donated by health volunteers were separated by Ficoll-Paque gradient centrifugation and naïve CD4^+ T cells were subsequently isolated using magnet beads (EasySep™ Human Naïve CD4^+ T Cell Isolation Kit, Cambridge, Mass.). For regulatory T cell (Treg) differentiation assay, naïve CD4^+ T cells were cultured (1-10×10^4 cells) in CTS OpTmizer medium for 6 days and stimulated with 5 ng/ml TGF-β, 100 U/ml IL-2, and ImmunoCult™ Human […] T Cell Activator; Stemcell #10990) with/without our Compounds. Cell viability was determined using a viability dye (eBioscience Fixable Viability Dye eFluor 780: ThermoFisher 65-0865-14) at 1:500 dilution. The cells were gated for Treg, defined as Live, CD11c^−, CD14^−, CD19^−, CD8^−, CD4^+, CD3^+, CD25^+, FOXP3^+. Percent (%) Tregs were calculated as percentage of CD4^+, CD25^+, FOXP3^+ cells over total CD4^+ T cells. Statistical analysis was performed with GraphPad Prism Software Using One-Way ANOVA.

[1] = Stability of conjugates in Simulated Intestinal Fluid (SIF); type: in vitro ADME; conditions: SIF pH 6.7 with pancreatin, 37° C., 1 μM compound
Experimental: Assay 2. Stability of conjugates in Simulated Intestinal Fluid (SIF). This assay was used to assess the stability of a conjugate in a small intestine.
Phosphate buffer was prepared by dissolving 0.42 g of sodium hydroxide pellets and 3.95 g of monobasic sodium phosphate monohydrate and 6.19 g of sodium chloride in ultrapure water (MilliQ®, Millipore Sigma, Darmstadt, Germany). The pH was adjusted to 6.7 using aq. HCl and aq. NaOH, as necessary, and the solution was diluted with ultrapure water to produce 1 L of the pH 6.7 buffer.
112 mg FaSSIF powder (Biorelevant™, London, UK) was dissolved in 50 mL of the pH 6.7 buffer. 2 to 3 mL of the resulting solution were then added to 500 mg pancreatin (Millipore Sigma, Darmstadt, Germany). The resulting mixture was agitated by finger tapping the vessel containing the mixture until milky suspension formed. At this time, the remainder of the 50 mL FaSSiF/pH 6.7 buffer solution was added. The resulting suspension was flipped upside down 10 times to produce SIF, which was used fresh.
(§1) Test compounds were dissolved in DMSO stock to 1 mM. An aliquot of the DMSO stock solution was removed and diluted in the SIF media in 15 mL falcon tubes to produce a mixture with a tested compound concentration of 1 μM. A 1 mL aliquot was immediately removed and diluted once with 1 volume of acetonitrile for TO timepoint. The mixture was sealed and agitated at 37° C. in an incubator. Aliquots (1 mL) were removed at regular intervals and immediately quenched by the addition of 1 volume of acetonitrile. The resulting samples were analyzed by LC/MS to determine degradation rates

[2] = Stability of conjugates in Simulated Gastric Fluid (SGF); type: in vitro ADME; conditions: SGF pH 1.6 with pepsin, 37° C., 1 μM compound
Experimental: Assay 1. Stability of conjugates in Simulated Gastric Fluid (SGF). This assay was used to assess the stability of a conjugate in a stomach.
Medium was prepared by dissolving 2 g of sodium chloride in 0.6 L in ultrapure water (MilliQ®, Millipore Sigma, Darmstadt, Germany). The pH was adjusted to 1.6 with 1N hydrochloric acid, and the volume was then adjusted to 1 L with purified water.
60 mg FaSSIF powder (Biorelevant™, London, UK) were dissolved in 500 mL buffer (above). Pepsin was added (0.1 mg/mL) (Millipore Sigma, Darmstadt, Germany), and the solution was stirred. The resulting SGF media were used fresh for each experiment.
as §1, with “SGF Media” for “SIF media”, “generate” for “produce”, “total” for “mixture with a tested”, “mixed” for “agitated”, “rates in SGF.” for “rates”

[3] = Homo sapiens, 144 h, TGF-β, read-out: Treg induction % DMSO

CC[C@H]1[C@@H](O)[C@@H]2[C@H](CC[C@]3(C)[C@@H]([C@H](C)CCC(=O)O)CC[C@@H]23)[C@@]2(C)CC[C@@H](O)C[C@@H]12 [obeticholic acid, reference compound]
Cell viability % DMSO (naïve CD4+ T cells; 100 μM): = (90% > <110%: =) | activity at 100 µM (naïve CD4+ T cells; [3]): 110 to 130%

CCC(=O)O [propionic acid]
Cell viability % DMSO (naïve CD4+ T cells; 3 mM): = (90% > <110%: =) | activity at 3000 µM (naïve CD4+ T cells; [3]): > 130%

CCCC(=O)O [butyric Acid]
Cell viability % DMSO (naïve CD4+ T cells; 3 mM): − (<90%: −) | activity at 3000 µM (naïve CD4+ T cells; [3]): < 90%

COC(=O)/C=C/C(=O)Oc1ccc(-c2oc3cc(OC(=O)/C=C/C(=O)OC)cc(OC(=O)/C=C/C(=O)OC)c3c(=O)c2O)cc1 [Compound 56, O4-[4-[3-hydroxy-5,7-bis[[(E)-4-methoxy-4-oxo-but-2-enoyl]oxy]-4-oxo-chromen-2-yl]phenyl] O1-methyl (E)-but-2-enedioate]
Assay 2 (SIF) (% @ Remaining 4 hours) [1]: A (A: <25% of the tested compound remaining) | Assay 1 (SGF) (% Remaining @ 1 hour) [2]: C (C: >75% of the tested compound remaining)

CCC(=O)O[C@H]1O[C@H](COC(=O)/C=C/C(=O)OC)[C@@H](OC(=O)CC)[C@H](OC(=O)CC)[C@H]1OC(=O)CC [Compound 50, 1-methyl 4-[(2R,3R,4S,5R,6R)-3,4,5,6-tetrakis(propanoyloxy)oxan-2-yl]methyl (2E)-but-2-enedioate]
Assay 2 (SIF) (% @ Remaining 4 hours) [1]: A (A: <25% of the tested compound remaining) | Assay 1 (SGF) (% Remaining @ 1 hour) [2]: C (C: >75% of the tested compound remaining)

CC(=O)O [acetic acid]
Cell viability % DMSO (naïve CD4+ T cells; 1 mM): = (90% > <110%: =) | Cell viability % DMSO (naïve CD4+ T cells; 3 mM): = (90% > <110%: =) | activity at 1000 µM (naïve CD4+ T cells; Homo sapiens, 144 h, TGF-β, IL-2, 1 mM, read-out: Treg induction % DMSO): 110 to 130% | activity at 3000 µM (naïve CD4+ T cells; [3]): > 130%

CCC(=O)OC[C@H]1O[C@@H](OC(=O)CC)[C@H](OC(=O)CC)[C@@H](OC(=O)CC)[C@H]1OC(=O)/C=C/C(=O)OC [Compound 51, 1-methyl (2R,3S,4S,5R,6S)-4,5,6-tris(propanoyloxy)-2-[(propanoyloxy)methyl]oxan-3-yl (2E)-but-2-enedioate]
Assay 2 (SIF) (% @ Remaining 4 hours) [1]: A (A: <25% of the tested compound remaining) | Assay 1 (SGF) (% Remaining @ 1 hour) [2]: C (C: >75% of the tested compound remaining)

CN(CCOc1ccc(CC2SC(=O)NC2=O)cc1)c1ccccn1 (stereo not drawn) [rosiglitazone, reference compound]
Cell viability % DMSO (naïve CD4+ T cells; 10 μM): = (90% > <110%: =) | Cell viability % DMSO (naïve CD4+ T cells; 100 μM): − (<90%: −) | activity at 10 µM (naïve CD4+ T cells; Homo sapiens, 144 h, TGF-β, IL-2, 10 μM, read-out: Treg induction % DMSO): 90 to 110% | activity at 100 µM (naïve CD4+ T cells; [3]): 90 to 110%

CCCC(=O)O[C@H]1[C@@H](OC(=O)CCC)[C@@H](CO)O[C@H](OC(=O)/C=C/C(=O)OC)[C@@H]1OC(=O)CCC [Compound 45, 1-methyl (2R,3R,4S,5S,6R)-3,4,5-tris(butanoyloxy)-6-(hydroxymethyl)oxan-2-yl (2E)-but-2-enedioate]
Assay 2 (SIF) (% @ Remaining 4 hours) [1]: A (A: <25% of the tested compound remaining) | Assay 1 (SGF) (% Remaining @ 1 hour) [2]: C (C: >75% of the tested compound remaining)

CCC(=O)OC[C@H]1O[C@H](OC(=O)CC)[C@H](OC(=O)CC)[C@@H](OC(=O)CC)[C@H]1OC(=O)/C=C/C(=O)OC [Compound 52, 1-methyl (2R,3S,4S,5R,6R)-4,5,6-tris(propanoyloxy)-2-[(propanoyloxy)methyl]oxan-3-yl (2E)-but-2-enedioate]
Assay 2 (SIF) (% @ Remaining 4 hours) [1]: A (A: <25% of the tested compound remaining) | Assay 1 (SGF) (% Remaining @ 1 hour) [2]: C (C: >75% of the tested compound remaining)

CCC(=O)O[C@@H]1[C@@H](OC(=O)CC)[C@@H](OC(=O)/C=C/C(=O)OC)O[C@H](C(=O)O)[C@H]1OC(=O)CC [Compound 26, (2S,3S,4S,5R,6R)-6-(((E)-4-methoxy-4-oxobut-2-enoyl)oxy)-3,4,5-tris(propionyloxy)tetrahydro-2H-pyran-2-carboxylic Acid]
Assay 2 (SIF) (% @ Remaining 4 hours) [1]: A (A: <25% of the tested compound remaining) | Assay 1 (SGF) (% Remaining @ 1 hour) [2]: C (C: >75% of the tested compound remaining)

CCC(=O)OC[C@H]1O[C@@H](OC(=O)/C=C/C(=O)OC)[C@H](OC(=O)CC)[C@@H](OC(=O)CC)[C@H]1O [Compound 47, (2S,3R,4S,5S,6R)-5-hydroxy-3,4-bis(propanoyloxy)-6-[(propanoyloxy)methyl]oxan-2-yl 1-methyl (2E)-but-2-enedioate]
Assay 2 (SIF) (% @ Remaining 4 hours) [1]: A (A: <25% of the tested compound remaining) | Assay 1 (SGF) (% Remaining @ 1 hour) [2]: C (C: >75% of the tested compound remaining)

CC(O)CC(=O)[O-].[Na+] (stereo not drawn) [sodium β-hydroxybutyrate]
Cell viability % DMSO (naïve CD4+ T cells; 2 mM): = (90% > <110%: =) | Cell viability % DMSO (naïve CD4+ T cells; 20 mM): − (<90%: −) | activity at 2000 µM (naïve CD4+ T cells; Homo sapiens, 144 h, TGF-β, IL-2, 2 mM, read-out: Treg induction % DMSO): 110 to 130% | activity at 20000 µM (naïve CD4+ T cells; Homo sapiens, 144 h, TGF-β, IL-2, 20 mM, read-out: Treg induction % DMSO): 90 to 110%

COC(=O)/C=C/C(=O)Oc1ccc(-c2oc3cc(OC(=O)/C=C/C(=O)OC)cc(OC(=O)/C=C/C(=O)OC)c3c(=O)c2OC(=O)/C=C/C(=O)OC)cc1 [Compound 54, 01-methyl O4-[4-[3,5,7-tris[[(E)-4-methoxy-4-oxo-but-2-enoyl]oxy]-4-oxo-chromen-2-yl]phenyl] (E)-but-2-enedioate]
Assay 2 (SIF) (% @ Remaining 4 hours) [1]: A (A: <25% of the tested compound remaining) | Assay 1 (SGF) (% Remaining @ 1 hour) [2]: C (C: >75% of the tested compound remaining)

CCC(=O)O[C@H]1[C@H](OC(=O)CC)[C@@H](OC(=O)/C=C/C(=O)OC)O[C@@H](C)[C@H]1OC(=O)CC [Compound 21, Methyl ((2R,3S,4R,5R,6S)-6-methyl-3,4,5-tris(propionyloxy)tetrahydro-2H-pyran-2-yl) fumarate]
Assay 2 (SIF) (% @ Remaining 4 hours) [1]: B (B: 25-75% of the tested compound remaining) | Assay 1 (SGF) (% Remaining @ 1 hour) [2]: C (C: >75% of the tested compound remaining)

CCC(=O)O[C@H]1[C@H](OC(=O)/C=C/C(=O)OC)OC[C@@H](OC(=O)CC)[C@H]1OC(=O)CC [Compound 6, Methyl ((2S,3R,4R,5R)-3,4,5-tris(propionyloxy)tetrahydro-2H-pyran-2-yl) fumarate]
Assay 2 (SIF) (% @ Remaining 4 hours) [1]: A (A: <25% of the tested compound remaining) | Assay 1 (SGF) (% Remaining @ 1 hour) [2]: C (C: >75% of the tested compound remaining)

COC(=O)/C=C/C(=O)Oc1cc(OC(=O)/C=C/C(=O)OC)c2c(c1)O[C@H](c1ccc(OC(=O)/C=C/C(=O)OC)c(OC(=O)/C=C/C(=O)OC)c1)[C@H](OC(=O)/C=C/C(=O)OC)C2 [Compound 53, O4-[2-[(E)-4-methoxy-4-oxo-but-2-enoyl]oxy-4-[(2R,3R)-3,5,7-tris[[(E)-4-methoxy-4-oxo-but-2-enoyl]oxy]chroman-2-yl]phenyl] O1-methyl (E)-but-2-enedioate]
Assay 2 (SIF) (% @ Remaining 4 hours) [1]: A (A: <25% of the tested compound remaining) | Assay 1 (SGF) (% Remaining @ 1 hour) [2]: C (C: >75% of the tested compound remaining)

CCC(=O)OC[C@H]1O[C@H](OC(=O)/C=C/C(=O)OC)[C@H](OC(=O)CC)[C@@H](OC(=O)CC)[C@H]1O [Compound 49, (2R,3R,4S,5S,6R)-5-hydroxy-3,4-bis(propanoyloxy)-6-[(propanoyloxy)methyl]oxan-2-yl 1-methyl (2E)-but-2-enedioate]
Assay 2 (SIF) (% @ Remaining 4 hours) [1]: A (A: <25% of the tested compound remaining) | Assay 1 (SGF) (% Remaining @ 1 hour) [2]: C (C: >75% of the tested compound remaining)
